According to patent publication US8580776B2, “Compositions and methods for treating neurodegenerating diseases” (The Board of Trustees of the University of Illinois, priority 2007, dated 2013):
“Also recorded” adds a separate entry of the source.

Assays:
[1] = test system: mouse neuronal N2A cells; test: NEP activity in N2A cells incubated with NA; type: cell-based; conditions: N2A cells incubated with NA for 24 hr
Protocol: Comparative real time RT-PCR (or quantitative PCR, QPCR) was used to measure mRNA levels of the Aβ degrading enzymes neprilysin (Nep) and insulin degrading enzyme (IDE) in brain samples from vehicle and DSP4 treated mice (FIG. 4A). Neprilysin activity in brain extracts was assayed by monitoring proteolysis of a fluorescent substrate (FIG. 4B). To assess the effects of dose, mouse neuronal N2A cells were incubated with increasing does of NA for 24 hr after which NEP activity was measured (FIG. 4D, data is mean±sd and is from n=3 samples).
In the results shown in FIG. 4D, mouse neuronal N2A cells were incubated with NA for 24 hr after which NEP activity was measured. Data is mean±sd and is from n=3 samples.

[2] = test system: BMP2; test: QPCR of BMP2 mRNA in primary astrocytes; type: cell-based; conditions: 100 μM NA, 24 hr
Source text: (§1) As shown in FIGS. 12C and 12D, BMP2 and BMP4 mRNA levels were decreased in astrocytes treated with NA. Data is mean±sd of n=2-3 experiments, and normalized to values for β-tubulin measured in the same samples.

[3] = test system: BMP4; test: QPCR of BMP4 mRNA in primary astrocytes; type: cell-based
Protocol: as §1
(§2) Further studies were carried out in which primary astrocytes were treated with 30 μM NA for 24 hours then mRNA levels of bone morphogenic proteins BMP2 and BMP4, Noggin, Gremlin, Follistatin and BAMBI were measured by QPCR (FIG. 16A). The results confirmed that BMP4 mRNA levels were decreased, whereas the Noggin mRNA levels were increased, in NA treated primary astrocytes (FIG. 16A).

[4] = test system: primary neurons; test: Aβ-induced neuronal damage in primary neurons (LDH release, FJ staining); type: cell-based; conditions: LDH release and FJ staining
Protocol: The levels of neuronal damage, using LDH release as a neuronal damage marker, were measured as a percentage of control. C: control; Aβ: primary neurons treated with Aβ; Aβ+NA: primary neurons treated Aβ and NA; and Aβ+dbcAMP: primary neurons treated with Aβ and dbcAMP. […] The staining intensity was quantified as a percentage of control as illustrated in the graph in FIG. 9B.

[5] = test system: P1 OPCs; test: QPCR of myelin genes in P1 OPCs treated with NA; type: cell-based; conditions: NA versus saline
Protocol: Additional studies were carried out in which QPCR analysis was performed for BMPs, BMP antagonists and myelin genes on P1 OPCs treated with saline or NA. The QPCR condition and primers are as described in Example 3. For QPCR experiments, RNA levels were calculated from QPCR take-off points, normalized for RNA values obtained for GDH; the average value for the vehicle treated RNA levels was set to 1.0. Comparisons were made using unpaired T-test, and P values <0.05 were considered to be significant. (FIGS. 15A and 15B).

[6] = test system: primary microglia; test: Microglial phagocytosis of FITC-labeled Aβ1-42 (FACS); type: cell-based, mouse; conditions: 10 nM to 10 μM, 4 hr, FITC-Aβ1-42 150 μM
Protocol: The ability of NA to modulate Aβ phagocytosis, another means by which amyloid plaque burden is regulated, was tested. Primary microglia were incubated with indicated concentrations of NA (FIG. 5A) or the β-AR agonist isoproterenol (FIG. 5B), in the presence of FITC-labeled Aβ1-42 (150 μM). After 4 hr, intracellular levels of Aβ were determined as described below.
Primary murine microglial cells were generated at P1 according to standard protocols. Briefly, frontal cortices of one day old C57BL6 mice were used to prepare mixed glial cultures in T75 cm^2 flasks in DMEM containing 10% FCS and antibiotics (100 IU/mL of penicillin and 100 ug/mL of streptomycin; Sigma), and incubated at 37° C. in a humidified atmosphere containing 5% CO2. Microglia were detached from the astrocyte monolayer by gentle shaking 11-13 days after the dissection, and cultures were 95-98% Mac1 positive.
FACS analysis was used to quantify microglial phagocytosis of Aβ1-42. […] Fluorescent signals due to cell adherent Aβ were eliminated by resuspending an aliquot of cells in an equal volume of 1 mg trypan blue/mL (Merck, Darmstadt, Germany) acetate buffer to quench extracellular fluorescence. The mean fluorescence intensity (MFI) was measured on a FACScan (Becton Dickinson, Mountain View, Calif.) equipped with an argon-ion laser (excitation wavelength at 488 nm, laser power 300 mW) and a band pass filter of 530 nm. […]

[7] = test system: oligodendrocyte progenitor cells (OPCs); test: Oligosphere / OPC maturation by immunostaining; type: cell-based, mouse
Protocol: Initial studies were carried out to identify treatments that influence OLG maturation using primary oligodendrocyte progenitor cells (OPCs) from E13 mouse pups. The cells were isolated as E13 neurospheres, and were shifted to OLG commitment (Oligospheres) by culture in PDGFα and bFGF. E13 Oligospheres were cultured on polylysine coated slides in media (containing bFGF and PDGFα) in the presence or absence of 25 μM NA. After 2 days the cells were fixed and stained with antibody to MBP (FIGS. 12A and 12B).
Further studies were carried out in which the oligospheres were cultured on polylysine coated slides in media (containing bFGF and PDGFα) in the presence or absence of 20 μM NA. After 24 hours the cells were fixed and stained with antibodies for PDGFRa, Oligodendrocyte Marker O4 and PLP (FIGS. 13 and 14).

[8] = test system: Noggin; test: Noggin mRNA (QPCR) and protein staining in primary astrocytes; type: cell-based
Protocol: as §2

[9] = test system: EAE mice; test: L-DOPS, Atomoxetine and combination in EAE mice (Example 13); type: in vivo; conditions: from day 17 after booster MOG, tri-weekly, L-DOPS 400 mg/kg s.c. plus 125 mg/kg bensazeride i.p., Atomoxetine 20 mg/kg
Source text: (§3) To assess disease severity, clinical signs were scored as follows: 0 indicated no clinical signs, 1 indicated a limp tail, 2 indicated an impaired righting of the animal, 3 indicated paresis of one hind limb, 4 indicated paresis of two hind limbs, and 5 indicated the death of the animal.
To test whether increasing NA derived from the NA precursor L-DOPS in combination with a NA reuptake inhibitor could provide benefit in EAE, C57B16 mice were immunized with MOG35-55 peptide using standard procedures as described in Example 9.

[10] = test system: EAE mice; test: L-DOPS treatment of EAE mice (Example 10); type: in vivo
Protocol: To test whether increased NA derived from the NA precursor L-DOPS could provide benefits in EAE, C57B16 mice were immunized with MOG35-55 peptide using standard procedures. At day 29 (FIG. 11A, arrow) after the booster MOG, 6 mice received daily injections of L-DOPS (using an intermediate dose of 200 mg/kg s.c.; plus 125 mg/kg bensazeride i.p. to block peripheral conversion to NA); control mice received saline. In the saline group, 4/6 mice were ill on day 29, and by day 36 all 6 were ill (FIG. 11A); the average clinical score increased from 1.3±0.4 (mean±se) on day 29 to 2.3±0.2 on day 37 (FIG. 11B). […] During treatment, scores of 2 of the 4 mice improved, and the average score decreased from 1.5±0.5 on day 29 to 1.2±0.4 on day 38.
as §3

NC[C@H](O)c1ccc(O)c(O)c1 [NA, noradrenaline]
NEP activity in cell culture [1]: increases NEP activity
BMP2 mRNA levels [2]: decreased
BMP4 mRNA levels ([3]; 30 μM NA, 24 hours): decreased
BMP4 mRNA levels ([3]; 100 μM NA, 24 hr): decreased
Aβ induced damage in primary neurons [4]: reduces Aβ induced damage
OPC maturation by Olig1, Olig2, GALc and CGT mRNA levels [5]: increases OPC maturation
accumulation of fluorescently tagged Aβ1-42 (intracellular Aβ uptake) [6]: dose dependently increased
OPC maturation, PDGFRa, O4 and PLP staining ([7]; 20 μM NA, 24 hours): accelerated OPC maturation
OPC maturation, PDGFa, O4 and PLP staining (figure legends) ([7]; 30 μM NA, 24 hours): induces more processes and greater a number of cells; also recorded: increased OPC maturation
OPC maturation, MBP staining ([7]; E13 oligospheres, 25 μM NA, 2 days): accelerated OPC maturation
Noggin protein expression (antibody staining) ([8]; NA-treated primary astrocytes): increased Noggin expression
Noggin mRNA levels ([8]; primary astrocytes, 30 μM NA, 24 hours): increased

CC(C)NCC(O)c1ccc(O)c(O)c1 (stereo not shown) [isoproterenol]
accumulation of fluorescently tagged Aβ1-42 (intracellular Aβ uptake) [6]: dose dependently increased

N[C@H](C(=O)O)[C@H](O)c1ccc(O)c(O)c1 [L-DOPS, (−)-threo-3-(3,4-dihydroxyphenyl)-L-serine]
clinical scores / EAE symptoms [9]: Benefits to EAE were seen; also recorded: stabilized scores
clinical scores in EAE mice ([10]; FIGS. 11A-11C): prevents the worsening of clinical scores
ill mice whose scores improved during treatment ([10]; L-DOPS group): 2 of the 4
incidence of disease during treatment ([10]; L-DOPS group after day 29, saline all 6 ill by day 36): did not further increase
mice ill on day 29 ([10]; L-DOPS group, first day of treatment): 4/6
average clinical score, day 38 ([10]; daily L-DOPS 200 mg/kg s.c. plus 125 mg/kg bensazeride i.p. from day 29, saline 2.3±0.2 on day 37): 1.2±0.4
average clinical score, day 29 ([10]; first day of L-DOPS 200 mg/kg s.c. plus 125 mg/kg bensazeride i.p., mean±se): 1.5±0.5

CNCC[C@@H](Oc1ccccc1C)c1ccccc1 [Atomoxetine]
clinical scores / EAE symptoms [9]: no effect on clinical scores
clinical scores / EAE symptoms ([9]; listed as Axtomoxtine): limited benefit
